Converted amounts (≈) assume the structure as drawn.
Columns and labels:
Format in all cases: cell-based
[1] = test system: Staphylococcus aureus 100 (ATCC 29213); experiment: MIC by broth microdilution, SA 100; settings: Staphylococcus aureus, ATCC29213, read-out: MIC SA 100
Summary of the method: (§1)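 Clinical isolates, glycopeptide-sensitive or -resistant, were tested in Mueller-Hinton broth. MICs came from the CLSI-recommended serial broth microdilution procedure.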

[2] = test system: Staphylococcus aureus 757 (MRSA); experiment: MIC by broth microdilution, SA 757; settings: Staphylococcus aureus, MRSA, read-out: MIC SA 757
Summary of the method: as §1

[3] = test system: Staphylococcus aureus 2012 (VISA); experiment: MIC by broth microdilution, SA 2012; settings: Staphylococcus aureus, VISA, read-out: MIC SA 2012, Staphylococcus aureus 2012 (VISA); class symbols
Summary of the method: as §1

Enterococcus faecium 800 = experiment: MIC by broth microdilution, EFcm 800; settings: Enterococcus faecium, 800, read-out: MIC E FCM 800
Summary of the method: as §1

[4] = test system: Streptococcus pyogenes 712; experiment: MIC by broth microdilution, SPY 712; settings: Streptococcus pyogenes, 712, read-out: MIC S PYO 712
Summary of the method: as §1

[5] = test system: Enterococcus faecalis 848 (VRE, Van A); experiment: MIC by broth microdilution, EFc 848; settings: Enterococcus faecalis, VRE, read-out: MIC E FC 848, Enterococcus faecalis 848 (VRE, Van A); class symbols
Summary of the method: as §1

[6] = test system: Staphylococcus epidermidis 831 (MRSE); experiment: MIC by broth microdilution, SE 831; settings: Staphylococcus epidermidis, MRSE, read-out: MIC SE 831
Summary of the method: as §1

[7] = test system: Staphylococcus epidermidis 835; experiment: MIC by broth microdilution, SE 835; settings: Staphylococcus epidermidis, 835, read-out: MIC SE 835
Summary of the method: as §1

[8] = test system: Enterococcus faecalis 101 (ATCC 29212); experiment: MIC by broth microdilution, EFc 101; settings: Enterococcus faecalis, ATCC29212, read-out: MIC E FC 101, Enterococcus faecalis 101 (ATCC 29212); class symbols
Summary of the method: as §1

[9] = test system: Streptococcus pneumoniae 1195 (ATCC 49619); experiment: MIC by broth microdilution, SPNE 1195; settings: Streptococcus pneumoniae, ATCC49619, read-out: MIC S PNE 1195
Summary of the method: as §1

[10] = test system: Enterococcus faecium 752 (VRE, Van A); experiment: MIC by broth microdilution, EFcm 752; settings: Enterococcus faecium, VRE, read-out: MIC E FCM 752, Enterococcus faecium 752 (VRE, Van A); class symbols
Summary of the method: as §1

CNCCCOc1ccc(NC(=O)Oc2cc(O)c3c(c2)[C@@H](C(=O)NC2C4CC5CC(C4)CC2C5)NC(=O)[C@H]2NC(=O)[C@H](NC(=O)[C@@H]4NC(=O)[C@H](CC(N)=O)NC(=O)[C@H](NC(=O)[C@@H](CC(C)C)NC)[C@H](O)c5ccc(c(Cl)c5)Oc5cc4cc(c5O[C@@H]4O[C@H](CO)[C@@H](O)[C@H](O)[C@H]4O[C@H]4C[C@](C)(N)[C@H](O)[C@H](C)O4)Oc4ccc(cc4Cl)[C@H]2O)c2ccc(O)c-3c2)cc1 (stereo partly drawn) [Compound 333]
MIC [1]: 4 to 8 µg/mL (≈ 2.24 to 4.47 µM) | MIC [2]: 4 to 8 µg/mL (≈ 2.24 to 4.47 µM) | MIC [3]: > 16 µg/mL | MIC (Enterococcus faecium 800): 2 to 4 µg/mL (≈ 1.12 to 2.24 µM) | MIC [4]: 1 to 2 µg/mL (≈ 0.559 to 1.12 µM) | MIC [5]: > 16 µg/mL | MIC [6]: 8 to 16 µg/mL (≈ 4.47 to 8.94 µM) | MIC [7]: 8 to 16 µg/mL (≈ 4.47 to 8.94 µM) | MIC [8]: 4 to 8 µg/mL (≈ 2.24 to 4.47 µM) | MIC [9]: 2 to 4 µg/mL (≈ 1.12 to 2.24 µM) | MIC [10]: > 16 µg/mL

CCCCCOc1ccc(S(=O)(=O)NCCCCNC(=O)Oc2cc(O)c3c(c2)[C@@H](C(=O)NC2C4CC5CC(C4)CC2C5)NC(=O)[C@H]2NC(=O)[C@H](NC(=O)[C@@H]4NC(=O)[C@H](CC(N)=O)NC(=O)[C@H](NC(=O)[C@@H](CC(C)C)NC)[C@H](O)c5ccc(c(Cl)c5)Oc5cc4cc(c5O[C@@H]4O[C@H](CO)[C@@H](O)[C@H](O)[C@H]4O[C@H]4C[C@](C)(N)[C@H](O)[C@H](C)O4)Oc4ccc(cc4Cl)[C@H]2O)c2ccc(O)c-3c2)cc1 (stereo partly drawn) [Compound 334]
MIC [1]: 0.01 to 0.5 µg/mL (≈ 0.0052 to 0.26 µM) | MIC [2]: 0.01 to 0.5 µg/mL (≈ 0.0052 to 0.26 µM) | MIC [3]: 1 to 2 µg/mL (≈ 0.52 to 1.04 µM) | MIC (Enterococcus faecium 800): 0.01 to 0.5 µg/mL (≈ 0.0052 to 0.26 µM) | MIC [4]: 0.01 to 0.5 µg/mL (≈ 0.0052 to 0.26 µM) | MIC [5]: 8 to 16 µg/mL (≈ 4.16 to 8.32 µM) | MIC [6]: 0.01 to 0.5 µg/mL (≈ 0.0052 to 0.26 µM) | MIC [7]: 0.01 to 0.5 µg/mL (≈ 0.0052 to 0.26 µM) | MIC [8]: 0.01 to 0.5 µg/mL (≈ 0.0052 to 0.26 µM) | MIC [9]: 0.01 to 0.5 µg/mL (≈ 0.0052 to 0.26 µM) | MIC [10]: 0.5 to 1 µg/mL (≈ 0.26 to 0.52 µM)

CNCCOc1ccc(CCNC(=O)Oc2cc(O)c3c(c2)[C@@H](C(=O)NC2C4CC5CC(C4)CC2C5)NC(=O)[C@H]2NC(=O)[C@H](NC(=O)[C@@H]4NC(=O)[C@H](CC(N)=O)NC(=O)[C@H](NC(=O)[C@@H](CC(C)C)NC)[C@H](O)c5ccc(c(Cl)c5)Oc5cc4cc(c5O[C@@H]4O[C@H](CO)[C@@H](O)[C@H](O)[C@H]4O[C@H]4C[C@](C)(N)[C@H](O)[C@H](C)O4)Oc4ccc(cc4Cl)[C@H]2O)c2ccc(O)c-3c2)cc1 (stereo partly drawn) [Compound 335]
MIC [1]: 0.01 to 0.5 µg/mL (≈ 0.00555 to 0.277 µM) | MIC [2]: 0.01 to 0.5 µg/mL (≈ 0.00555 to 0.277 µM) | MIC [3]: 1 to 2 µg/mL (≈ 0.555 to 1.11 µM) | MIC (Enterococcus faecium 800): 0.01 to 0.5 µg/mL (≈ 0.00555 to 0.277 µM) | MIC [4]: 0.01 to 0.5 µg/mL (≈ 0.00555 to 0.277 µM) | MIC [5]: > 16 µg/mL | MIC [6]: 0.01 to 0.5 µg/mL (≈ 0.00555 to 0.277 µM) | MIC [7]: 0.01 to 0.5 µg/mL (≈ 0.00555 to 0.277 µM) | MIC [8]: 0.01 to 0.5 µg/mL (≈ 0.00555 to 0.277 µM) | MIC [9]: 0.01 to 0.5 µg/mL (≈ 0.00555 to 0.277 µM) | MIC [10]: 2 to 4 µg/mL (≈ 1.11 to 2.22 µM)

CNCCCCCNC(=O)Oc1cc(O)c2c(c1)[C@@H](C(=O)NC1C3CC4CC(C3)CC1C4)NC(=O)[C@H]1NC(=O)[C@H](NC(=O)[C@@H]3NC(=O)[C@H](CC(N)=O)NC(=O)[C@H](NC(=O)[C@@H](CC(C)C)NC)[C@H](O)c4ccc(c(Cl)c4)Oc4cc3cc(c4O[C@@H]3O[C@H](CO)[C@@H](O)[C@H](O)[C@H]3O[C@H]3C[C@](C)(N)[C@H](O)[C@H](C)O3)Oc3ccc(cc3Cl)[C@H]1O)c1ccc(O)c-2c1 (stereo partly drawn) [Compound 336]
MIC [1]: 0.01 to 0.5 µg/mL (≈ 0.0058 to 0.29 µM) | MIC [2]: 0.01 to 0.5 µg/mL (≈ 0.0058 to 0.29 µM) | MIC [3]: 1 to 2 µg/mL (≈ 0.58 to 1.16 µM) | MIC (Enterococcus faecium 800): 0.01 to 0.5 µg/mL (≈ 0.0058 to 0.29 µM) | MIC [4]: 0.01 to 0.5 µg/mL (≈ 0.0058 to 0.29 µM) | MIC [5]: > 16 µg/mL | MIC [6]: 0.01 to 0.5 µg/mL (≈ 0.0058 to 0.29 µM) | MIC [7]: 0.01 to 0.5 µg/mL (≈ 0.0058 to 0.29 µM) | MIC [8]: 0.01 to 0.5 µg/mL (≈ 0.0058 to 0.29 µM) | MIC [9]: 0.01 to 0.5 µg/mL (≈ 0.0058 to 0.29 µM) | MIC [10]: > 16 µg/mL

CCNCCOc1ccc(CCNC(=O)Oc2cc(O)c3c(c2)[C@@H](C(=O)NC2C4CC5CC(C4)CC2C5)NC(=O)[C@H]2NC(=O)[C@H](NC(=O)[C@@H]4NC(=O)[C@H](CC(N)=O)NC(=O)[C@H](NC(=O)[C@@H](CC(C)C)NC)[C@H](O)c5ccc(c(Cl)c5)Oc5cc4cc(c5O[C@@H]4O[C@H](CO)[C@@H](O)[C@H](O)[C@H]4O[C@H]4C[C@](C)(N)[C@H](O)[C@H](C)O4)Oc4ccc(cc4Cl)[C@H]2O)c2ccc(O)c-3c2)cc1 (stereo partly drawn) [Compound 337]
MIC [1]: 0.01 to 0.5 µg/mL (≈ 0.0055 to 0.275 µM) | MIC [2]: 0.01 to 0.5 µg/mL (≈ 0.0055 to 0.275 µM) | MIC [3]: 1 to 2 µg/mL (≈ 0.55 to 1.1 µM) | MIC (Enterococcus faecium 800): 0.01 to 0.5 µg/mL (≈ 0.0055 to 0.275 µM) | MIC [4]: 0.01 to 0.5 µg/mL (≈ 0.0055 to 0.275 µM) | MIC [5]: 8 to 16 µg/mL (≈ 4.4 to 8.81 µM) | MIC [6]: 0.01 to 0.5 µg/mL (≈ 0.0055 to 0.275 µM) | MIC [7]: 0.01 to 0.5 µg/mL (≈ 0.0055 to 0.275 µM) | MIC [8]: 0.01 to 0.5 µg/mL (≈ 0.0055 to 0.275 µM) | MIC [9]: 0.01 to 0.5 µg/mL (≈ 0.0055 to 0.275 µM) | MIC [10]: 4 to 8 µg/mL (≈ 2.2 to 4.4 µM)

CCCCOc1ccc(CCNC(=O)Oc2cc(O)c3c(c2)[C@@H](C(=O)NC2C4CC5CC(C4)CC2C5)NC(=O)[C@H]2NC(=O)[C@H](NC(=O)[C@@H]4NC(=O)[C@H](CC(N)=O)NC(=O)[C@H](NC(=O)[C@@H](CC(C)C)NC)[C@H](O)c5ccc(c(Cl)c5)Oc5cc4cc(c5O[C@@H]4O[C@H](CO)[C@@H](O)[C@H](O)[C@H]4O[C@H]4C[C@](C)(N)[C@H](O)[C@H](C)O4)Oc4ccc(cc4Cl)[C@H]2O)c2ccc(O)c-3c2)cc1 (stereo partly drawn) [Compound 339]
MIC [1]: 0.01 to 0.5 µg/mL (≈ 0.00555 to 0.278 µM) | MIC [2]: 0.01 to 0.5 µg/mL (≈ 0.00555 to 0.278 µM) | MIC [3]: 0.5 to 1 µg/mL (≈ 0.278 to 0.555 µM) | MIC (Enterococcus faecium 800): 0.01 to 0.5 µg/mL (≈ 0.00555 to 0.278 µM) | MIC [4]: 0.01 to 0.5 µg/mL (≈ 0.00555 to 0.278 µM) | MIC [5]: 4 to 8 µg/mL (≈ 2.22 to 4.44 µM) | MIC [6]: 0.01 to 0.5 µg/mL (≈ 0.00555 to 0.278 µM) | MIC [7]: 0.01 to 0.5 µg/mL (≈ 0.00555 to 0.278 µM) | MIC [8]: 0.01 to 0.5 µg/mL (≈ 0.00555 to 0.278 µM) | MIC [9]: 0.01 to 0.5 µg/mL (≈ 0.00555 to 0.278 µM) | MIC [10]: 0.5 to 1 µg/mL (≈ 0.278 to 0.555 µM)

Source: patent publication US20110015119A1, “NOVEL SEMI-SYNTHETIC GLYCOPEPTIDES AS ANTIBACTERIAL AGENTS” (LEAD THERAPEUTICS, INC., priority 2009, published 2011)
